Test results reported in PubChem BioAssay AID248 (DTP/NCI, 2004).
Several values for one entry are separate records, joined by “and”; a condition that tells them apart may be missing. Equal entries are not always repeated. Toxic doses and inconclusive results are not listed. Cut-off read from the data, not from the text of the source: active = T/C of 150% or more; inactive = T/C below 125%. Square brackets hold non-standard residues; d marks the D form. Peptide text beside a SMILES is read from it. * marks the point of attachment. ξ: configuration not given here. Pentanoyl = CCCCC(=O)*; ξP = O=C(O)C1CCCN1; Ava = NCCCCC(=O)O

Tested on: L1210 leukemia ip in BDF1 mice, survival T/C
Assay: NCI In Vivo Anticancer Drug Screen. Data for tumor model L1210 Leukemia (intraperitoneal) in B6D2F1 (BDF1) mice
Conditions: endpoint: mean survival time, higher = longer survival
How it was run: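 Read-out is survival time, reported as the treated-group measurement over the vehicle-control measurement.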

[1] = dose: 100.0 mg/kg/injection, schedule: Q01DX001 (ip), vehicle: saline
[2] = dose: 200.0 mg/kg/injection, schedule: Q01DX001 (ip), vehicle: saline
[3] = dose: 400.0 mg/kg/injection, schedule: Q01DX001 (ip), vehicle: saline
[4] = dose: 100.0 mg/kg/injection, schedule: Q01DX009 (ip), vehicle: Klucel (hydroxypropylcellulose) (HPC)
[5] = dose: 100.0 mg/kg/injection, schedule: Q04DX003 (ip), vehicle: Klucel (hydroxypropylcellulose) (HPC)
[6] = dose: 200.0 mg/kg/injection, schedule: Q01DX009 (ip), vehicle: Klucel (hydroxypropylcellulose) (HPC)
[7] = dose: 200.0 mg/kg/injection, schedule: Q04DX003 (ip), vehicle: Klucel (hydroxypropylcellulose) (HPC)
[8] = dose: 400.0 mg/kg/injection, schedule: Q01DX009 (ip), vehicle: Klucel (hydroxypropylcellulose) (HPC)
[9] = dose: 400.0 mg/kg/injection, schedule: Q04DX003 (ip), vehicle: Klucel (hydroxypropylcellulose) (HPC)
[10] = dose: 200.0 mg/kg/injection, schedule: Q04DX002 (ip), vehicle: Klucel (hydroxypropylcellulose) (HPC)
[11] = dose: 400.0 mg/kg/injection, schedule: Q04DX002 (ip), vehicle: Klucel (hydroxypropylcellulose) (HPC)

Measured: T/C

N#CC(=N)C(C#N)=Nc1c(O)[nH]c2ccccc12
inactive: dose: 25.0 mg/kg/injection, schedule: Q01DX001 (ip), vehicle: DMSO 93 % of control | dose: 25.0 mg/kg/injection, schedule: Q01DX009 (ip), vehicle: DMSO 92 % of control | dose: 50.0 mg/kg/injection, schedule: Q01DX001 (ip), vehicle: DMSO 97 % of control | dose: 50.0 mg/kg/injection, schedule: Q01DX009 (ip), vehicle: DMSO 91 % of control | dose: 100.0 mg/kg/injection, schedule: Q01DX001 (ip), vehicle: DMSO 97 % of control and 102 % of control

CC(C)Nc1nc(N)nc2nc(-c3ccc(Cl)cc3)c(-c3ccc(Cl)cc3)nc12
inactive: [1] 100 % of control | [2] 113 % of control | [3] 107 % of control

CCCCC(=O)NCC(=O)N1CCCC1C(=O)NCCCCC(=O)OC (stereo not drawn) (Pentanoyl-Gly-[ξP]-[Ava]-OMe)
inactive: [1] 98 % of control | [2] 95 % of control | [3] 95 % of control

O=C(NCCCl)NC1OCC(O)C(O)C1O (stereo not drawn)
inactive: [1] 112 % of control | [2] 97 % of control | [3] 103 % of control

O=C1CCCN(c2ccccc2)c2ccccc21
inactive: dose: 100.0 mg/kg/injection, schedule: Q01DX009 (ip), vehicle: other 100 % of control | dose: 100.0 mg/kg/injection, schedule: Q04DX003 (ip), vehicle: other 98 % of control | dose: 200.0 mg/kg/injection, schedule: Q01DX009 (ip), vehicle: other 98 % of control | dose: 200.0 mg/kg/injection, schedule: Q04DX003 (ip), vehicle: other 109 % of control | dose: 400.0 mg/kg/injection, schedule: Q01DX009 (ip), vehicle: other 96 % of control | dose: 400.0 mg/kg/injection, schedule: Q04DX003 (ip), vehicle: other 104 % of control

COc1ccc(C2C(c3ccccc3)C=CC(c3ccccc3)C2[N+](=O)[O-])cc1OC (stereo not drawn)
inactive: dose: 100.0 mg/kg/injection, schedule: Q01DX001 (ip), vehicle: carboxymethylcellulose (CMC) 94 % of control | dose: 200.0 mg/kg/injection, schedule: Q01DX001 (ip), vehicle: carboxymethylcellulose (CMC) 110 % of control | dose: 400.0 mg/kg/injection, schedule: Q01DX001 (ip), vehicle: carboxymethylcellulose (CMC) 94 % of control

Cc1cc(C)c(C(=O)/C=C/c2ccccc2)c(C)c1
inactive: [4] 91 % of control | [5] 104 % of control | [6] 94 % of control | [7] 101 % of control | [8] 94 % of control | [9] 95 % of control

CCCc1ccc(O)c(O)c1
inactive: dose: 20.0 mg/kg/injection, schedule: Q01DX001 (ip), vehicle: saline 103 % of control | dose: 20.0 mg/kg/injection, schedule: Q01DX009 (ip), vehicle: saline 105 % of control | dose: 40.0 mg/kg/injection, schedule: Q01DX001 (ip), vehicle: saline 96 % of control | dose: 40.0 mg/kg/injection, schedule: Q01DX009 (ip), vehicle: saline 93 % of control | dose: 80.0 mg/kg/injection, schedule: Q01DX001 (ip), vehicle: saline 92 % of control

CCCCCCCCC(=O)N1CCC(C)CC1
inactive: [10] 106 % of control | [11] 95 % of control

CCC1(C)N=C(C)C(C)S1 (stereo not drawn)
inactive: dose: 100.0 mg/kg/injection, schedule: Q04DX003 (ip), vehicle: saline with Tween-80 111 % of control | dose: 200.0 mg/kg/injection, schedule: Q04DX003 (ip), vehicle: saline with Tween-80 100 % of control | dose: 400.0 mg/kg/injection, schedule: Q04DX003 (ip), vehicle: saline with Tween-80 100 % of control

NNS(=O)(=O)c1ccc(OCC(=O)O)cc1
inactive: [4] 98 % of control | [5] 102 % of control | [6] 94 % of control | [7] 98 % of control | [8] 94 % of control | [9] 98 % of control

NCCC1=NCCN1
inactive: dose: 100.0 mg/kg/injection, schedule: Q04DX002 (ip), vehicle: Klucel (hydroxypropylcellulose) (HPC) 100 % of control | [10] 104 % of control | [11] 104 % of control
